Experimental data taken from patent US20060270685A1, “Anhydrous ziprasidone mesylate and a process for its preparation” (priority 2005, published 2006).
Where a name gives a salt, the structure may show the parent alone.

Experiments:
[1] = Water uptake (hygroscopicity) after exposure to 80% relative humidity, Karl Fisher and XRD; type: physicochemical
Description: The present invention further provides non hygroscopic anhydrous ziprasidone mesylate. Anhydrous ziprasidone mesylate is tested for water uptake after exposure to 80% relative humidity, at room temperature for 7 days, as summarized in the following table:
X-Ray powder diffraction data were obtained using a SCINTAG powder X-Ray diffractometer model X'TRA equipped with a solid state detector. Copper radiation of 1.5418 Å was used. A round aluminum sample holder with zero background was used. All peak positions are within ±0.2 degrees two theta. Karl Fisher analysis was performed according to the known art.
Anhydrous ziprasidone mesylate, having a tabular, and equant morphology was exposed to 80% humidity for at least 7 days at room temperature. Before the exposure, the water content was 0.5% as measured by Karl Fisher. After 7 days at 80% humidity at RT the sample contained 0.6% water as measured by Karl Fisher. Thus, there was an increase of 0.1% in the water content.

[2] = when exposed to air (humidity); cited from earlier work
[3] = 80% RH, room temperature, 7 days

O=C1Cc2cc(CCN3CCN(c4nsc5ccccc45)CC3)c(Cl)cc2N1 [Anhydrous ziprasidone mesylate, ziprasidone mesylate]
Crystal form (by XRD) [1, 3]: Anhydrous
water Content (By KF) [1, 3]: 0.6
change in the crystal form after the exposure ([1]; 80% humidity, at least 7 days, room temperature): No change in the crystal form
increase in the water content ([1]; 7 days at 80% humidity at RT vs before exposure): 0.1%
Crystal form (by XRD) ([1]; Initial, before exposure): Anhydrous
water Content (By KF) ([1]; Initial, before exposure): 0.5
water content as measured by Karl Fisher ([1]; after 7 days at 80% humidity at RT): 0.6%
water content as measured by Karl Fisher ([1]; before the exposure): 0.5%
hygroscopicity [2]: hygroscopic
